In ChEMBL document CHEMBL2331297, “Potent and selective tariquidar bioisosters as potential PET radiotracers for imaging P-gp” (Bioorg Med Chem Lett, 2013):

Legend:
MDR1 (ABCB1, P-gp) [1] = target: T1, MDR1 (ABCB1, P-gp) (Homo sapiens, UniProt P08183); assay: Ratio of MC90 EC50 to compound EC50 for MDR1 (unknown origin) by fluorometric analysis; details: not told, read-out: Ratio EC50
MDR1 (ABCB1, P-gp) [2] = target: T1, MDR1 (ABCB1, P-gp); assay: Activity at MDR1 (unknown origin) expressed in MDCK cells assessed as ATPase activity at 50 uM after 2 hrs by ATPlite assay; assay type: cell-based; details: MDCK cells expressing MDR1, read-out: Activity
[3] = Efflux ratio of apparent permeability from basolateral to apical to apical to basolateral side of human Caco2 cells after 120 mins; assay type: ADME, cell-based; details: Caco-2
[4] = target: Multidrug resistance-associated protein 1 (Homo sapiens, UniProt P33527); assay: Activity at MRP1 (unknown origin) expressed in MDCK cells using calcein AM as substrate incubated for 30 mins prior to substrate addition measured after 30 mins by fluorometric analysis; assay type: cell-based
[5] = target: T2, Broad substrate specificity ATP-binding cassette transporter ABCG2 (Homo sapiens, UniProt Q9UNQ0); assay: Activity at BCRP (unknown origin) expressed in MDCK cells using […] as substrate incubated for 30 mins prior to substrate addition measured after 30 mins by fluorometric analysis; assay type: cell-based
T2 sequence (Q9UNQ0 whole entry): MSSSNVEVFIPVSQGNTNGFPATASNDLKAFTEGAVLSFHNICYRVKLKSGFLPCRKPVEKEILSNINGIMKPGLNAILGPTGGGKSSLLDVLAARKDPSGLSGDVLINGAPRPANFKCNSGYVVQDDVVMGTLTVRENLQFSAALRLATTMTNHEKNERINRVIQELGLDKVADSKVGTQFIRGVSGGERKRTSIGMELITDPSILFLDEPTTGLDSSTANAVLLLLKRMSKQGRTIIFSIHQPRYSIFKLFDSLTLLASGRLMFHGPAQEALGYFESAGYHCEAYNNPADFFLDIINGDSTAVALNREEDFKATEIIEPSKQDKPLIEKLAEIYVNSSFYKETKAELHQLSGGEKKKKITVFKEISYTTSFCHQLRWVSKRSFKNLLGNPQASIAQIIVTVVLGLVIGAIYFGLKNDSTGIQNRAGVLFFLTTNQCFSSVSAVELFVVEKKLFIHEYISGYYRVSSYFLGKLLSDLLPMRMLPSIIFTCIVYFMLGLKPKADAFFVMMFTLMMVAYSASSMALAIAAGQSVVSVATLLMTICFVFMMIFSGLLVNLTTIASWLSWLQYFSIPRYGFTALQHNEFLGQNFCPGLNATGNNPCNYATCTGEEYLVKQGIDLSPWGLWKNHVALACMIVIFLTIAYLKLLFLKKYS

[6] = target: ATP-dependent translocase ABCB1 (Homo sapiens, UniProt P08183); assay: Activity at MDR1 (unknown origin) expressed in MDCK cells using calcein AM as substrate incubated for 30 mins prior to substrate addition measured after 30 mins by fluorometric analysis; assay type: cell-based
ATP-dependent translocase ABCB1, sequence (P08183 whole entry): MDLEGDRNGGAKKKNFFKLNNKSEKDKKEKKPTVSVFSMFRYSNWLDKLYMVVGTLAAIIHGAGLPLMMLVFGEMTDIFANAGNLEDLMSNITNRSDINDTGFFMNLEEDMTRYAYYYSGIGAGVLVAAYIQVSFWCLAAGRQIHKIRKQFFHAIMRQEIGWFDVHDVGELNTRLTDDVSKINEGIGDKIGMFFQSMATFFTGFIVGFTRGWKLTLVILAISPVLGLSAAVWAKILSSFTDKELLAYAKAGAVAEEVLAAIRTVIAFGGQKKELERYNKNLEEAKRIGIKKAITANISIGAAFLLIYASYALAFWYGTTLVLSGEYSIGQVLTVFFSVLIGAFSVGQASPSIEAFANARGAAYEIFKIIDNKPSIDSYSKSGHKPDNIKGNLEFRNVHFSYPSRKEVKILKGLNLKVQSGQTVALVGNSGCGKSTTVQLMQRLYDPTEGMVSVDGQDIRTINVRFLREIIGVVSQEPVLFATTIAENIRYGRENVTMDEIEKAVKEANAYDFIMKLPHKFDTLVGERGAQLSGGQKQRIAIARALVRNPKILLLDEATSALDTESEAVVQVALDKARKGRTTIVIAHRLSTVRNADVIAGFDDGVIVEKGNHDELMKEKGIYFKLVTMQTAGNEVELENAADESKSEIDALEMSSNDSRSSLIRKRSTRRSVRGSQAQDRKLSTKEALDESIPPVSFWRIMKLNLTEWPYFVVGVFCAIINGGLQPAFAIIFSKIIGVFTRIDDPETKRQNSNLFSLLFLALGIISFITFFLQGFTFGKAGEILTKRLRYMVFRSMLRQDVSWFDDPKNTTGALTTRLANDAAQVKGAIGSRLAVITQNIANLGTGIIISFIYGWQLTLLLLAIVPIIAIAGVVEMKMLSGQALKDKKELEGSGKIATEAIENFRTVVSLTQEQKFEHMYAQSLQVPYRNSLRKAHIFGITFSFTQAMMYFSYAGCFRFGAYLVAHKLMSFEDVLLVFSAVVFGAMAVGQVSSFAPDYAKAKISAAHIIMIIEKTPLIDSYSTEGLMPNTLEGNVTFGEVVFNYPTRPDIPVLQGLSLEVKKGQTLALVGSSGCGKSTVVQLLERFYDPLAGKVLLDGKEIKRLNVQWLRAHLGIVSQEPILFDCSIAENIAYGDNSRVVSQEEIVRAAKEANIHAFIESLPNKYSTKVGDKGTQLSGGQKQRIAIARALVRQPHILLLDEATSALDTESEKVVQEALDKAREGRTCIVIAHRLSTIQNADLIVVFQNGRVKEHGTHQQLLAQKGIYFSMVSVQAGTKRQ

Multidrug resistance-associated protein 1, sequence (P33527 whole entry): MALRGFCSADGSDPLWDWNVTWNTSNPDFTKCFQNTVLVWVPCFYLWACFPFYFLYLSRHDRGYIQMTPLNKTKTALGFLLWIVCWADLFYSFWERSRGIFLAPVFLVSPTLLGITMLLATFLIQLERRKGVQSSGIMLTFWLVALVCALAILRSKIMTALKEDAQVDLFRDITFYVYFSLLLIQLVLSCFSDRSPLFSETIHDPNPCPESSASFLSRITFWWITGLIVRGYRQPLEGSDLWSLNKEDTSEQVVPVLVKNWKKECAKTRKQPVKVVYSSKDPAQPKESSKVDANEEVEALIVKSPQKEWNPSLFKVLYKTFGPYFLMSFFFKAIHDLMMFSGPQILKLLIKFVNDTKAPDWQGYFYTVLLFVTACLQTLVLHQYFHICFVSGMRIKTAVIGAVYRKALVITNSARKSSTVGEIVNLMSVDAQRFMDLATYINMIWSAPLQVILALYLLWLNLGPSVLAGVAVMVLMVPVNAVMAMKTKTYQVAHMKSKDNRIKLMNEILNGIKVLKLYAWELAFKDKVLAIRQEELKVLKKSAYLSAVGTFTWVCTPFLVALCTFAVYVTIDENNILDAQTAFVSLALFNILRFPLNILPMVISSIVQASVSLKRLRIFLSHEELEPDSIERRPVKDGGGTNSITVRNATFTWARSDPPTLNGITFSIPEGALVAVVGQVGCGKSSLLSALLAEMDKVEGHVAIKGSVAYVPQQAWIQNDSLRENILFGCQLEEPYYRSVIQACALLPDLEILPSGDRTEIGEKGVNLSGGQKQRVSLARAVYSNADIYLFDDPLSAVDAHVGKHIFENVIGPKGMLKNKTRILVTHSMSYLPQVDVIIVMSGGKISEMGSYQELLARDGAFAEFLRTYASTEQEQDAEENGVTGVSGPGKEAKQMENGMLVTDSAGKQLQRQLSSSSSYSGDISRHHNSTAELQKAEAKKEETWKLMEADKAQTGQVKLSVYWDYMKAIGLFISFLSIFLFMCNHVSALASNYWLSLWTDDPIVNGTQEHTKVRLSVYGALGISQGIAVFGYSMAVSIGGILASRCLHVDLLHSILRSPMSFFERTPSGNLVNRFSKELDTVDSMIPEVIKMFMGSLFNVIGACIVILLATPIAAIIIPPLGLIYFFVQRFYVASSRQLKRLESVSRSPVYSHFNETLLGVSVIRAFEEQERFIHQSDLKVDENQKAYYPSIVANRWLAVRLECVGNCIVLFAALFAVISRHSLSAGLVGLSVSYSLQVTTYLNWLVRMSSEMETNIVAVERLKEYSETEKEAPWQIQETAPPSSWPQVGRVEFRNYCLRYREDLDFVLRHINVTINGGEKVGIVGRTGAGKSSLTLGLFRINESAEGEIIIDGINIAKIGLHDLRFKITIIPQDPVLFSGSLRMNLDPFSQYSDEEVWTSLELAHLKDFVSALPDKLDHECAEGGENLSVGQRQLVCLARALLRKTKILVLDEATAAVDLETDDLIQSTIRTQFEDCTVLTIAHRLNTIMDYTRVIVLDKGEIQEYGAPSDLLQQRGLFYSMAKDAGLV
T1 sequence (P08183 whole entry): as the sequence (P08183 whole entry) above

activity at 2 h, 50 µM (MDR1 (ABCB1, P-gp) [2]) [%] | efflux ratio at 2 h [3] | EC50 [4] [µM] | EC50 [5] [µM] | EC50 [6] [µM] | Compound | selectivity ratio (MDR1 (ABCB1, P-gp) [1])
18 | 4.5 | > 100 | 1 | 0.41 | COc1cc2c(cc1OC)CN(Cc1ccc(Oc3ccc(-c4nc(-c5ccc(F)cc5)cs4)cn3)cc1)CC2 | 10
– | 6.1 | 2.7 | 30 | 1.94 | COc1ccc(-c2nc(CN3CCc4cc(OC)c(OC)cc4C3)cs2)cc1 | –
– | – | > 100 | – | 19 | COc1cc2c(cc1OC)CN(Cc1ccc(Oc3ccc(C(N)=O)cn3)cc1)CC2 | –
– | – | > 100 | – | 11 | COc1cc2c(cc1OC)CN(Cc1ccc(Oc3ccc(C(N)=S)cn3)cc1)CC2 | –
20 | 2.5 | > 100 | 0.5 | 0.95 | COc1cccc(-c2csc(-c3ccc(Oc4ccc(CN5CCc6cc(OC)c(OC)cc6C5)cc4)nc3)n2)c1 | 10
20 | 0.9 | > 100 | 0.018 | 0.25 | COc1cc2c(cc1OC)CN(Cc1ccc(Oc3ccc(-c4nc(-c5cccc(O)c5)cs4)cn3)cc1)CC2 | 10
16 | 2.7 | > 100 | 10 | 0.51 | COc1cc2c(cc1OC)CN(Cc1ccc(Oc3ccc(-c4nc(-c5ccc([N+](=O)[O-])cc5)cs4)cn3)cc1)CC2 | 10
– | 2.6 | 21 | 15 | 0.6 | COc1ccc(-c2ccc(CN3CCc4cc(OC)c(OC)cc4C3)cc2)cc1 | –
– | 1.64 | – | 90 | – | COc1cc2c(cc1OC)CN(CC/C=C1\CCCc3c(OC)cccc31)CC2 | –
30 | 22 | – | – | – | COc1cc2c(cc1OC)CN(CCc1ccc(NC(=O)c3cc(OC)c(OC)cc3NC(=O)c3cnc4ccccc4c3)cc1)CC2 [TARIQUIDAR] | –
